# Assay results published in patent US20030104507A1, “Method for detection of ATP” (priority 2001, published 2003).
# What was measured:
# LucPpy = biological target: T1, LucPpy (Photinus pyralis, UniProt P08659); assay: Stability of reagent composition with LucPpy and detergent (RT, pH 7.0); format: biochemical; settings: for Average Relative Light Units / Percent of Luminescence Remaining: LucPpy
# T1 construct: purchased Promega E170A
# Excerpt: (§1) The detergents used for inhibition of endogenous ATPase activity in a sample also affect activity of luciferase. […] It is ultimately the extended stability of a reagent composition, comprising an ATPase inhibitor and a luciferase enzyme, which provides a composition useful for measuring ATP, in a sample or samples, over an extended period of time.
# (§2) In this experiment, the stability of a reagent composition comprising wild type LucPpy was compared to the stability of a reagent composition comprising LucPpe2m146 at about 23° C. (room temperature). The various reagent compositions had varying detergent concentrations.
# (§3) Two solutions were created as listed below. One contained the luciferase, luciferin, MgSO4, and buffer (reagent composition). The other solution contained media plus ATP (media solution).
# (§4) 50 μg/ml enzyme (LucPpy is Promega catalog #E170A)
# (§5) Detergent (at various concentrations, see table below)
# (§6) For each reagent composition, all ingredients except the luciferase enzyme were assembled; the enzyme was then added immediately before the first luminescence reading was taken. Immediately after addition of enzyme to each reagent composition and for various timepoints thereafter, 100 μl aliquots of the reagent composition were added to wells of a 96-well microtitre luminometer plate in triplicate. To these were added 100 μl Media Solution containing the ATP. Luminescence was then immediately read on a Dynex MLX microtitreplate luminometer, 0.5 second reads per well. The average relative light unit values as well as the reaction half lives are listed below in Table I and the percent of original luminescence remaining at each timepoint is listed in Table J below. The timepoint at the top of the column indicates the time at which the first rlu measurement for the samples in that column was read. […] Times listed in Table I are the same for Table J. The values for sulfobetaine and for CTAB were generated on different days, they are presented with the control values generated in the same experiment.
# LucPpe2m146 = assay: Stability of reagent composition with LucPpe2m146 and detergent (RT, pH 7.0); format: biochemical, Photuris pennsylvanica
# Excerpt: as §1, §2, §3, §4, §5, §6
compound,measurement,setting,value
"CCCCCCCCCCCCOS(=O)(=O)[O-].[Na+] [SDS, Sodium dodecyl sulfate]",Half-life of Luminescence Activity,"LucPpy; Common firefly luciferase (P. pyralis), conc. 0.050",no activity
same,Average Relative Light Units,"LucPpy; 0.002%, 0.75 min (head r32)",640.290 rlu
same,Percent of Luminescence Remaining,"LucPpy; 0.002%, 0.75 min (times of Table I r32)",100.00%
same,Average Relative Light Units,"LucPpy; 0.002%, 38 min (head r32)",190.860 rlu
same,Percent of Luminescence Remaining,"LucPpy; 0.002%, 38 min (times of Table I r32)",29.81%
same,Average Relative Light Units,"LucPpy; 0.002%, 70 min (head r32)",84.210 rlu
same,Percent of Luminescence Remaining,"LucPpy; 0.002%, 70 min (times of Table I r32)",13.15%
same,Average Relative Light Units,"LucPpy; 0.002%, 94 min (head r32)",47.210 rlu
same,Percent of Luminescence Remaining,"LucPpy; 0.002%, 94 min (times of Table I r32)",7.37%
same,Average Relative Light Units,"LucPpy; 0.002%, 122 min (head r32)",25.630 rlu
same,Percent of Luminescence Remaining,"LucPpy; 0.002%, 122 min (times of Table I r32)",4.0%
same,Average Relative Light Units,"LucPpy; 0.01%, 0.75 min (head r18)",0.175 rlu
same,Average Relative Light Units,"LucPpy; 0.01%, 0.75 min (head r32)",17.584 rlu
same,Percent of Luminescence Remaining,"LucPpy; 0.01%, 0.75 min (times of Table I r18)",100.00%
same,Average Relative Light Units,"LucPpy; 0.01%, 10 min (head r18)",0.016 rlu
same,Percent of Luminescence Remaining,"LucPpy; 0.01%, 10 min (times of Table I r18)",9.14%
same,Average Relative Light Units,"LucPpy; 0.01%, 38 min (head r32)",0.001 rlu
same,Average Relative Light Units,"LucPpy; 0.05%, 0.75 min (head r5)",0.007 rlu
same,Percent of Luminescence Remaining,"LucPpy; 0.05%, 0.75 min (times of Table I r5)",100.00%
same,Average Relative Light Units,"LucPpe2m146; LucPpe2m146, 0.002%, 1.0 min (head r67)",24265.83 rlu
same,Percent of Luminescence Remaining,"LucPpe2m146; LucPpe2m146, 0.002%, 1.0 min (times of Table I r67)",100.00%
same,Average Relative Light Units,"LucPpe2m146; LucPpe2m146, 0.002%, 34 min (head r67)",24213.97 rlu
same,Percent of Luminescence Remaining,"LucPpe2m146; LucPpe2m146, 0.002%, 34 min (times of Table I r67)",99.79%
same,Average Relative Light Units,"LucPpe2m146; LucPpe2m146, 0.002%, 65 min (head r67)",24725.73 rlu
same,Percent of Luminescence Remaining,"LucPpe2m146; LucPpe2m146, 0.002%, 65 min (times of Table I r67)",101.90%
same,Average Relative Light Units,"LucPpe2m146; LucPpe2m146, 0.002%, 115 min (head r67)",22654.87 rlu
same,Percent of Luminescence Remaining,"LucPpe2m146; LucPpe2m146, 0.002%, 115 min (times of Table I r67)",93.36%
same,Average Relative Light Units,"LucPpe2m146; LucPpe2m146, 0.002%, 175 min (head r67)",23856.73 rlu
same,Percent of Luminescence Remaining,"LucPpe2m146; LucPpe2m146, 0.002%, 175 min (times of Table I r67)",98.31%
same,Average Relative Light Units,"LucPpe2m146; LucPpe2m146, 0.002%, 238 min (head r67)",23425.5 rlu
same,Percent of Luminescence Remaining,"LucPpe2m146; LucPpe2m146, 0.002%, 238 min (times of Table I r67)",96.54%
same,Average Relative Light Units,"LucPpe2m146; LucPpe2m146, 0.002%, 286 min (head r67)",23275.6 rlu
same,Percent of Luminescence Remaining,"LucPpe2m146; LucPpe2m146, 0.002%, 286 min (times of Table I r67)",95.92%
same,Average Relative Light Units,"LucPpe2m146; LucPpe2m146, 0.01%, 1.0 min (head r54)",24.46 rlu
same,Percent of Luminescence Remaining,"LucPpe2m146; LucPpe2m146, 0.01%, 1.0 min (times of Table I r54)",100.00%
same,Average Relative Light Units,"LucPpe2m146; LucPpe2m146, 0.01%, 34 min (head r54)",27.85 rlu
same,Percent of Luminescence Remaining,"LucPpe2m146; LucPpe2m146, 0.01%, 34 min (times of Table I r54)",113.85%
same,Average Relative Light Units,"LucPpe2m146; LucPpe2m146, 0.01%, 65 min (head r54)",10.77 rlu
same,Percent of Luminescence Remaining,"LucPpe2m146; LucPpe2m146, 0.01%, 65 min (times of Table I r54)",44.02%
same,Average Relative Light Units,"LucPpe2m146; LucPpe2m146, 0.01%, 115 min (head r54)",6.45 rlu
same,Percent of Luminescence Remaining,"LucPpe2m146; LucPpe2m146, 0.01%, 115 min (times of Table I r54)",26.38%
same,Average Relative Light Units,"LucPpe2m146; LucPpe2m146, 0.01%, 175 min (head r54)",2.02 rlu
same,Percent of Luminescence Remaining,"LucPpe2m146; LucPpe2m146, 0.01%, 175 min (times of Table I r54)",8.25%
same,Average Relative Light Units,"LucPpe2m146; LucPpe2m146, 0.01%, 238 min (head r54)",2.44 rlu
same,Percent of Luminescence Remaining,"LucPpe2m146; LucPpe2m146, 0.01%, 238 min (times of Table I r54)",9.97%
same,Average Relative Light Units,"LucPpe2m146; LucPpe2m146, 0.01%, 286 min (head r54)",0.62 rlu
same,Percent of Luminescence Remaining,"LucPpe2m146; LucPpe2m146, 0.01%, 286 min (times of Table I r54)",2.53%
same,Average Relative Light Units,"LucPpe2m146; LucPpe2m146, 0.05%, 15 min (head r41)",0.018 rlu
same,Percent of Luminescence Remaining,"LucPpe2m146; LucPpe2m146, 0.05%, 15 min (times of Table I r41)",100.00%
same,Average Relative Light Units,"LucPpe2m146; LucPpe2m146, 0.05%, 72 min (head r41)",0.012 rlu
same,Percent of Luminescence Remaining,"LucPpe2m146; LucPpe2m146, 0.05%, 72 min (times of Table I r41)",65.68%
same,Average Relative Light Units,"LucPpe2m146; LucPpe2m146, 0.05%, 124 min (head r41)",0.001 rlu
same,Percent of Luminescence Remaining,"LucPpe2m146; LucPpe2m146, 0.05%, 124 min (times of Table I r41)",6.09%
same,Average Relative Light Units,"LucPpe2m146; LucPpe2m146, 0.05%, 190 min (head r41)",0.006 rlu
same,Percent of Luminescence Remaining,"LucPpe2m146; LucPpe2m146, 0.05%, 190 min (times of Table I r41)",35.06%
same,Average Relative Light Units,"LucPpe2m146; LucPpe2m146, 0.05%, 251 min (head r41)",0.016 rlu
same,Percent of Luminescence Remaining,"LucPpe2m146; LucPpe2m146, 0.05%, 251 min (times of Table I r41)",87.64%
